According to PubChem BioAssay AID2060600 (Molecular Pharmacology Branch, DTP, NCI, 2025):

Test system: 996289-038-R-J1-PDC complex spheroid viability
Test: Anticancer human tumor 996289-038-R-J1-PDC patient-derived colon adenocarcinoma cell line growth inhibition [CLK]
Settings: for IC50: curve of first compound; for viability, T/C: stronger effect = lower value
Outline: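 Patient-derived tumor cells grown as complex spheroids with HUVEC endothelial cells and mesenchymal stem cells, treated with drug combinations. Concentrations descend in half-log steps from near clinical Cmax, or from 10 microM if Cmax unknown.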

[1] = second compound 0.0316 µM, first compound 0.0316 µM
[2] = second compound 0.0316 µM, first compound 0.1 µM
[3] = second compound 0.1 µM, first compound 0.0316 µM
[4] = second compound 0.1 µM, first compound 0.1 µM
[5] = second compound 0.316 µM, first compound 0.0316 µM
[6] = second compound 0.316 µM, first compound 0.1 µM
[7] = second compound 1 µM, first compound 0.0316 µM
[8] = second compound 1 µM, first compound 0.1 µM
[9] = second compound 3.16 µM, first compound 0.0316 µM
[10] = second compound 3.16 µM, first compound 0.1 µM
[11] = second compound 10 µM, first compound 0.0316 µM
[12] = second compound 10 µM, first compound 0.1 µM
[13] = second compound 0.0316 µM, first compound 0.316 µM
[14] = second compound 0.0316 µM, first compound 1 µM
[15] = second compound 0.0316 µM, first compound 3.16 µM
[16] = second compound 0.0316 µM, first compound 10 µM
[17] = second compound 0.1 µM, first compound 0.316 µM
[18] = second compound 0.1 µM, first compound 1 µM
[19] = second compound 0.1 µM, first compound 3.16 µM
[20] = second compound 0.1 µM, first compound 10 µM
[21] = second compound 0.316 µM, first compound 0.316 µM
[22] = second compound 0.316 µM, first compound 1 µM
[23] = second compound 0.316 µM, first compound 3.16 µM
[24] = second compound 0.316 µM, first compound 10 µM
[25] = second compound 1 µM, first compound 0.316 µM
[26] = second compound 1 µM, first compound 1 µM
[27] = second compound 1 µM, first compound 3.16 µM
[28] = second compound 1 µM, first compound 10 µM
[29] = second compound 3.16 µM, first compound 0.316 µM
[30] = second compound 3.16 µM, first compound 1 µM
[31] = second compound 3.16 µM, first compound 3.16 µM
[32] = second compound 3.16 µM, first compound 10 µM
[33] = second compound 10 µM, first compound 0.316 µM
[34] = second compound 10 µM, first compound 1 µM
[35] = second compound 10 µM, first compound 3.16 µM
[36] = second compound 10 µM, first compound 10 µM
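Note: spheroids exposed to the agents for 7 days before readout.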

Compound: Cn1ncnc1[C@H]1c2n[nH]c(=O)c3cc(F)cc(c23)N[C@@H]1c1ccc(F)cc1 + CN1CCN(c2cc(C(=O)Nc3cc4cc(-c5cnn(C)c5)ccc4cn3)ccn2)CC1
- IC50 (second compound 0.0316 µM): > 0.1 µM
- IC50 (second compound 0.1 µM): > 0.1 µM
- IC50 (second compound 0.316 µM): > 0.1 µM
- IC50 (second compound 1 µM): < 0.000316 µM
- IC50 (second compound 3.16 µM): < 0.000316 µM
- IC50 (second compound 10 µM): < 0.000316 µM
- viability, T/C (second compound 0.0316 µM, first compound 0.000316 µM): 104%
- viability, T/C (second compound 0.0316 µM, first compound 0.001 µM): 102%
- viability, T/C (second compound 0.0316 µM, first compound 0.00316 µM): 102%
- viability, T/C (second compound 0.0316 µM, first compound 0.01 µM): 107%
- viability, T/C [1]: 101%
- viability, T/C [2]: 80.4%
- viability, T/C (second compound 0.1 µM, first compound 0.000316 µM): 88.8%
- viability, T/C (second compound 0.1 µM, first compound 0.001 µM): 96.9%
- viability, T/C (second compound 0.1 µM, first compound 0.00316 µM): 87.6%
- viability, T/C (second compound 0.1 µM, first compound 0.01 µM): 97%
- viability, T/C [3]: 95.5%
- viability, T/C [4]: 86.8%
- viability, T/C (second compound 0.316 µM, first compound 0.000316 µM): 72.3%
- viability, T/C (second compound 0.316 µM, first compound 0.001 µM): 70.2%
- viability, T/C (second compound 0.316 µM, first compound 0.00316 µM): 74.6%
- viability, T/C (second compound 0.316 µM, first compound 0.01 µM): 71.6%
- viability, T/C [5]: 67.9%
- viability, T/C [6]: 53%
- viability, T/C (second compound 1 µM, first compound 0.000316 µM): 5.01%
- viability, T/C (second compound 1 µM, first compound 0.001 µM): 4.06%
- viability, T/C (second compound 1 µM, first compound 0.00316 µM): 4.98%
- viability, T/C (second compound 1 µM, first compound 0.01 µM): 6.96%
- viability, T/C [7]: 6.27%
- viability, T/C [8]: 4.4%
- viability, T/C (second compound 3.16 µM, first compound 0.000316 µM): 0.64%
- viability, T/C (second compound 3.16 µM, first compound 0.001 µM): 0.72%
- viability, T/C (second compound 3.16 µM, first compound 0.00316 µM): 1.05%
- viability, T/C (second compound 3.16 µM, first compound 0.01 µM): 0.84%
- viability, T/C [9]: 0.71%
- viability, T/C [10]: 1.35%
- viability, T/C (second compound 10 µM, first compound 0.000316 µM): 0.97%
- viability, T/C (second compound 10 µM, first compound 0.001 µM): 0.51%
- viability, T/C (second compound 10 µM, first compound 0.00316 µM): 1.37%
- viability, T/C (second compound 10 µM, first compound 0.01 µM): 2.6%
- viability, T/C [11]: 0.38%
- viability, T/C [12]: 0.92%

Compound: Nc1ccn(C2OC(CO)C(O)C2(F)F)c(=O)n1 (stereo unspecified) + CN1CCN(c2cc(C(=O)Nc3cc4cc(-c5cnn(C)c5)ccc4cn3)ccn2)CC1
- IC50 (second compound 0.0316 µM): 0.851 µM
- IC50 (second compound 0.1 µM): 0.406 µM
- IC50 (second compound 0.316 µM): 0.13 µM
- IC50 (second compound 1 µM): < 0.0316 µM
- IC50 (second compound 3.16 µM): < 0.0316 µM
- IC50 (second compound 10 µM): < 0.0316 µM
- viability, T/C [1]: 86.7%
- viability, T/C [2]: 62.6%
- viability, T/C [13]: 54.5%
- viability, T/C [14]: 51.5%
- viability, T/C [15]: 49.1%
- viability, T/C [16]: 43.4%
- viability, T/C [3]: 74.6%
- viability, T/C [4]: 56.4%
- viability, T/C [17]: 53.2%
- viability, T/C [18]: 46.9%
- viability, T/C [19]: 41.2%
- viability, T/C [20]: 35.8%
- viability, T/C [5]: 57.7%
- viability, T/C [6]: 52%
- viability, T/C [21]: 43.3%
- viability, T/C [22]: 39.2%
- viability, T/C [23]: 36.2%
- viability, T/C [24]: 26%
- viability, T/C [7]: 4.69%
- viability, T/C [8]: 4.7%
- viability, T/C [25]: 3.37%
- viability, T/C [26]: 6.26%
- viability, T/C [27]: 3.39%
- viability, T/C [28]: 3.71%
- viability, T/C [9]: 1.41%
- viability, T/C [10]: 1.07%
- viability, T/C [29]: 1.65%
- viability, T/C [30]: 1%
- viability, T/C [31]: 1.01%
- viability, T/C [32]: 2.06%
- viability, T/C [11]: 0.95%
- viability, T/C [12]: 1.01%
- viability, T/C [33]: 0.41%
- viability, T/C [34]: 1.58%
- viability, T/C [35]: 0.37%
- viability, T/C [36]: 0.35%

Compound: O=c1[nH]cc(F)c(=O)[nH]1 + CN1CCN(c2cc(C(=O)Nc3cc4cc(-c5cnn(C)c5)ccc4cn3)ccn2)CC1
- IC50 (second compound 0.0316 µM): > 10 µM
- IC50 (second compound 0.1 µM): > 10 µM
- IC50 (second compound 0.316 µM): 4.88 µM
- IC50 (second compound 1 µM): < 0.0316 µM
- IC50 (second compound 3.16 µM): < 0.0316 µM
- IC50 (second compound 10 µM): < 0.0316 µM
- viability, T/C [1]: 100%
- viability, T/C [2]: 91.3%
- viability, T/C [13]: 76.4%
- viability, T/C [14]: 74.4%
- viability, T/C [15]: 74.2%
- viability, T/C [16]: 71%
- viability, T/C [3]: 101%
- viability, T/C [4]: 94.4%
- viability, T/C [17]: 74.2%
- viability, T/C [18]: 65.5%
- viability, T/C [19]: 60.8%
- viability, T/C [20]: 58.4%
- viability, T/C [5]: 77.1%
- viability, T/C [6]: 68.1%
- viability, T/C [21]: 56.8%
- viability, T/C [22]: 56.7%
- viability, T/C [23]: 51.7%
- viability, T/C [24]: 47.3%
- viability, T/C [7]: 4.52%
- viability, T/C [8]: 5.71%
- viability, T/C [25]: 5.87%
- viability, T/C [26]: 6.18%
- viability, T/C [27]: 6.47%
- viability, T/C [28]: 7.26%
- viability, T/C [9]: 1.22%
- viability, T/C [10]: 0.94%
- viability, T/C [29]: 0.86%
- viability, T/C [30]: 1.6%
- viability, T/C [31]: 0.83%
- viability, T/C [32]: 0.72%
- viability, T/C [11]: 0.56%
- viability, T/C [12]: 0.79%
- viability, T/C [33]: 0.98%
- viability, T/C [34]: 1.55%
- viability, T/C [35]: 0.45%
- viability, T/C [36]: 0.41%
